Source: patent US12668584B2, “Heterocyclic compounds as kinase inhibitors for therapeutic uses” (National Health Research Institutes, priority 2019, dated 2026)

Legend:
[1] = molecular target: T1, CSF1R kinase (recombinant N-terminal GST-CSF1R, residues L534-C972) (Homo sapiens, UniProt P07333); experiment: CSF1R Kinase-Glo assay; type: biochemical; settings: 40 μM ATP, 30° C. 180 min, read-out: Enzymatic Assay CSF1R enzyme IC50
T1 construct: Recombinant N-terminal GST-CSF1R (CSF1R residues L534-C972) containing the CSFIR kinase domain; made in house; host or cells: Sf9 insect cells
T1 sequence (P07333 534-972): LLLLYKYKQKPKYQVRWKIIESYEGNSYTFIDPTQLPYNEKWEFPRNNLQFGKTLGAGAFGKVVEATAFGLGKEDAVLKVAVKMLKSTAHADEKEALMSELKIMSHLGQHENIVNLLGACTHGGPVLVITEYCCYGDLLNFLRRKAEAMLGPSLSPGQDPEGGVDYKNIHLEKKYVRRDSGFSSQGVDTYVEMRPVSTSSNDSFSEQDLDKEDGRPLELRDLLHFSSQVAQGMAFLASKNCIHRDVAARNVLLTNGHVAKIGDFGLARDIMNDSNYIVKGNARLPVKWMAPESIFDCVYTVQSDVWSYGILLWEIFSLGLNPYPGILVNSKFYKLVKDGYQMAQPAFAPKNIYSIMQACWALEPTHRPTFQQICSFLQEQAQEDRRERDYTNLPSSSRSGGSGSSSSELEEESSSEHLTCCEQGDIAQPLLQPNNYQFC
Description: A study was conducted to test certain compounds described in EXAMPLE 1 in inhibiting CSF1R kinase activity.
Activity of CSF1R kinase was determined using a CSF1R Kinase-Glo assay. Recombinant N-terminal GST-CSF1R (CSF1R residues L534-C972) containing the CSFIR kinase domain was expressed in Sf9 insect cells and purified. The kinase assay was carried out in 96-well plates at 30° C. for 180 min with the tested compounds in a final volume of 50 μl including the following components: 25 mM Tris-HCl pH 7.4, 4 mM MnCl2, 10 mM MgCl2, 0.01% BSA, 0.5 mM NA3VO4, 0.02% Triton X-100, 40 μM ATP, 2 mM DTT and 20 μM poly(Glu,Tyr) 4:1 peptide, and 600 ng recombinant GST-CSF1R. Following incubation, 50 μl Kinase-Glo Plus Reagent (Promega, Madison, WI, USA) was added and the mixture was incubated at 25° C. for 20 min. A 70-μL aliquot of each reaction mixture was transferred to a black microtiter plate and luminescence was measured on Wallac Vector 1420 multilabel counter (PerkinElmer, Shelton, CT, USA). Percentage inhibition values were obtained by comparison of reaction rate with the rates in control wells (i.e., in the absence of test compound). IC50 values were calculated from a series of percentage inhibition values determined at a range of test compound concentrations using GraphPad Prism version 6 software (GraphPad, San Diego, CA, USA).

[2] = system: M-NFS-60 cells; experiment: MTS cell viability assay, M-NFS-60; type: cell-based; settings: 72 h, read-out: Cellular Proliferation Assay M-NFS-60 (nM) GI50
Description: (§1) Studies were conducted to evaluate […] anticancer activity of certain compounds described in EXAMPLE 1 using 3-(4,5-dimethylthiazol-2-yl)-5-(3-carboxymethoxyphenyl)-2-(4-sulfophenyl)-2H-tetrazolium) (MTS) cell viability assays. Results from these studies are shown in Table 2 below (see columns 3 and 4).
(§2) The cell lines M-NFS-60 (ATCC® CRL-1838™) and BaF3-CSF1R-1600 were obtained from American Type Culture Collection (ATCC, Manassas, VA, USA). The stable BaF3-CSF1R-1600 cell line expresses ETV6-CSF1R fusion protein consisting of N-terminal ETS-variant gene 6 protein (ETV6 residues M1-G337) and CSF1R tyrosine kinase (CSF1R residues L533-C972). The M-NSF-60 and BaF3-CSF1R-1600 cells were cultured in RPMI1640 medium supplemented with 10% fetal bovine serum, 0.05 mM 2-ME, 10 U/ml penicillin, and 10 µg/ml streptomycin at 37° C. and 5% CO2.
(§3) M-NFS-60 and BaF3-CSF1R-1600 cells were seeded in 96-well plates at a density of 10000 cells/100 μl and 8000 cells/100 μl per well, respectively, for 16 h and treated with vehicle or various concentrations of test compounds in medium for 72 h. Viable cells were quantified using the MTS method (Promega, Madison, WI, USA) according to manufacturer's recommended protocol. The results were determined by measuring absorbance at 490 nm using a plate reader (Victor 2). The GI50 value was defined as the amount of compound that caused 50% reduction in cell viability in comparison with DMSO-treated (vehicle) control and was calculated using Prism GraphPad Prism version 6 software (GraphPad).

[3] = system: BaF3-CSF1R-1600 cells (express ETV6-CSF1R fusion protein); experiment: MTS cell viability assay, BaF3-CSF1R-1600; type: cell-based; settings: 72 h, read-out: Cellular Proliferation Assay BaF3-CSF1R GI50
Description: as §1, §2, §3

| Compound | IC50 [1] [µM] | GI50 [3] [µM] | GI50 [2] [nM] |
| --- | --- | --- | --- |
| CN(C)c1ccc2c(Oc3ccc(NC(=O)NCc4ccc(C(F)(F)F)cc4)cc3)ncnc2c1 [Compound 56] | 0.02 to 0.1 | 0.02 to 0.1 | 100 to 1000 |
| CN(C)c1ccc2c(Oc3ccc(NC(=O)NCc4ccco4)cc3)ncnc2c1 [Compound 63] | 0.02 to 0.1 | 0.1 to 1 | 100 to 1000 |
| CN(C)c1ccc2c(Oc3ccc4c(cnn4C(=O)NCc4ccc(C(F)(F)F)nc4)c3)ncnc2c1 [Compound 68] | 0.02 to 0.1 | 0.02 to 0.1 | 100 to 1000 |
| C[C@@H]1CN(c2ccc3c(Oc4ccc(NC(=O)NCc5ccc(C(F)(F)F)nc5)cc4)ncnc3c2)C[C@H](C)N1C [Compound 97] | 0.02 to 0.1 | 0.02 to 0.1 | 20 to 100 |
| CCN1CCN(c2ccc3c(Oc4ccc(NC(=O)NCc5ccc(C(F)(F)F)nc5)cc4)ncnc3c2)CC1 [Compound 100] | < 0.02 | 0.02 to 0.1 | 20 to 100 |
| CN(C)c1ccc2c(Oc3ccc(NC(=O)NCc4nccs4)cc3)ncnc2c1 [Compound 101] | 0.02 to 0.1 | 0.1 to 1 | 100 to 1000 |
| CN(C)c1ccc2c(Oc3ccc4nc(NCc5ccc(C(F)(F)F)nc5)oc4c3)ncnc2c1 [Compound 102] | 0.02 to 0.1 | 0.1 to 1 | > 1000 |
| COc1ccc(Cl)cc1NC(=O)Nc1ccc(Oc2ncnc3cc(N(C)C)ccc23)cc1 [Compound 104] | 0.02 to 0.1 | 0.02 to 0.1 | 100 to 1000 |
| COc1ccc(NC(=O)Nc2ccc(Oc3ncnc4cc(N(C)C)ccc34)cc2)cc1Cl [Compound 105] | 0.02 to 0.1 | 0.02 to 0.1 | 20 to 100 |
| CN(C)c1ccc2c(Oc3ccc(NC(=O)Nc4ccc(F)cc4)cc3)ncnc2c1 [Compound 106] | < 0.02 | > 1 | 100 to 1000 |
| COCCN1CCN(c2ccc3c(Oc4ccc(NC(=O)NCc5ccc(C(F)(F)F)nc5)cc4)ncnc3c2)CC1 [Compound 108] | 0.02 to 0.1 | 0.02 to 0.1 | 20 to 100 |

Now from value to compound, other results behind:

| IC50 [1] [µM] | GI50 [3] [µM] | Compound | GI50 [2] [nM] |
| --- | --- | --- | --- |
| < 0.02 | 0.1 to 1 | CN(C)c1ccc2c(Oc3ccc(NC(=O)NCc4ccc(S(N)(=O)=O)cc4)cc3)ncnc2c1 [Compound 49] | > 1000 |
| < 0.02 | 0.02 to 0.1 | CN(C)c1ccc2c(Oc3ccc(NC(=O)NCc4ccccc4)cc3)ncnc2c1 [Compound 51] | 20 to 100 |
| < 0.02 | 0.1 to 1 | CN(C)c1ccc2c(Oc3ccc(NC(=O)NCc4ccc(OC(F)(F)F)cc4)cc3)ncnc2c1 [Compound 57] | 100 to 1000 |
| < 0.02 | 0.02 to 0.1 | CN(C)c1ccc2c(Oc3ccc(NC(=O)NCCc4ccccc4)cc3)ncnc2c1 [Compound 58] | 100 to 1000 |
| < 0.02 | 0.02 to 0.1 | COc1ccc(CNC(=O)Nc2ccc(Oc3ncnc4cc(N(C)C)ccc34)cc2)cc1 [Compound 59] | 20 to 100 |
| < 0.02 | 0.02 to 0.1 | Cc1ccc(CNC(=O)Nc2ccc(Oc3ncnc4cc(N(C)C)ccc34)cc2)cn1 [Compound 65, 1-(4-((7-(dimethylamino)quinazolin-4-yl)oxy)phenyl)-3-((6-methylpyridin-3-yl)methyl)urea] | 20 to 100 |
| < 0.02 | < 0.02 | O=C(NCc1ccc(C(F)(F)F)nc1)Nc1ccc(Oc2ncnc3cc(N4CCN(C5COC5)CC4)ccc23)cc1 [Compound 98] | 20 to 100 |
| < 0.02 | 0.02 to 0.1 | O=C(NCc1ccc(C(F)(F)F)nc1)Nc1ccc(Oc2ncnc3cc(N4CCOCC4)ccc23)cc1 [Compound 99] | 20 to 100 |
